Patent US9663463B2, “3-azabicyclo[3.1.0]hexane derivative and use thereof for medical purpose” (priority 2013, dated 2017)
Where a name gives a salt, the structure may show the parent alone.

How the values were obtained:
[1] = target: human μ-opioid receptor (Homo sapiens (Human), UniProt P35372); assay: Antagonist activity test using [35S]-GTPγS bond as index using human μ-opioid receptor-expressing cell membrane; format: biochemical
Experimental: Cells in which a human μ-opioid receptor had been highly expressed was purchased from ChanTest (Cleveland). The cells were cultured in a carbon dioxide gas culturing apparatus by using a Ham's F12 culture medium (Invitrogen) containing 10% of fetal bovine blood serum, 1% of non-essential amino acids, 0.4 mg/ml of G418, 100 U/ml of penicillin and 100 μg/ml of streptomycin. The cultured cells were suspended by using a 0.25% trypsin 1 mM EDTA solution, the suspension was collected by using phosphate-buffered saline and centrifuged at 4° C. and 1,000 rpm for 10 minute to remove the supernatant, whereby a cell mass was obtained. […] Similar homogenization and centrifugation operations were repeated on the sediment, a homogenized buffer was added again to the obtained sediment, and the resultant was similarly homogenized to give a membrane fraction solution. The obtained membrane fraction solution was dispensed, rapidly frozen and stored under freezing at −70° C. or less until use. Furthermore, the protein concentration of the obtained membrane fraction solution was measured by using a BCA protein Assay Kit (Cat. 23227, Pierce) according to the protocol attached to the kit.
The cell membrane fraction solution in which the human μ-opioid receptor had expressed, which had been stored under freezing, was melted, a GTP assay buffer (100 mM NaCl, 5 mM MgCl2, 1 mM EDTA-containing 50 mM Hepes (pH 7.4)) was added thereto, and the resultant was homogenized repeatedly twice by using a Polytron homogenizer (SMT Multi Disperser PB95) under ice cooling at 12,000 rpm for 20 seconds to give a homogeneous solution, and the homogeneous solution was diluted to 0.036 mg/ml with a GTP assay buffer containing 18.2 μM of GDP (final concentration: […]). The dilution was incubated for 15 minutes or more under ice cooling until the reaction was initiated. […] [^35S]-GTPγS (NEG030X, Perkinelmer) was diluted with a GTP assay buffer so as to be 0.616 nM (final concentration: 0.08 nM). The resultant was diluted with a GTP assay buffer so as to be 200 nM (final concentration: 10 nM) by using [D-Ala^2, N-Me-Phe^4, Gly^5-ol]-enkephalinacetate (DAMGO, Sigma) as a μ-opioid receptor agonist. WGA Coated PVT SPA Beads (RPNQ0001, Perkinelmer) were added so as to be 20 mg/ml with a GTP assay buffer, and the resultant was suspended (final concentration: 1 mg/well). 4 μL/well of a test substance solution, 10 μL/well of a DAMGO solution, 26 μL/well of a [^35S]-GTPγS solution, […] of a suspension liquid of WGA Coated PVT SPA Beads, and 110 μL/well of the membrane fraction solution were added to a 96 well plate (1450-401, Perkinelmer), the top part of the plate was sealed, and a reaction was performed at 30° C. for 60 minutes under stirring with a plate shaker. For each measurement plate, a well to which DMSO had been added instead of the test substance, and a well to which DMSO had been added instead of the test substance and a GTP assay buffer had been added instead of the DAMGO solution were prepared. Furthermore, after the reaction was completed, the reactant was centrifuged at room temperature and 1,000 rpm for 3 minutes, and the radioactivity was measured by a microplate scintillation luminescence counter (Perkinelmer).
The IC50 value of the test substance was calculated by using Graphpad Prism 5.

[2] = in vitro; format: in vitro ADME, mice; conditions: Crl:CD-1 (ICR), mouse, pH 7.4; murine serum, equilibrium dialysis, 37° C., 5 to 6 hours; read-out: Protein binding rate (converted)
Experimental: The protein binding rate was determined by equilibrium dialysis method using the RED Device (8K MWCO, Rapid Equilibrium Dialysis Device, Thermo Scientific). The test substances that had been dissolved in DMSO were added to the serum that was collected from Crl: CD-1 (ICR) mice fasted overnight, so that the final concentration of DMSO became 1% (v/v). The serum to which the test substance had been added was added to the inner side of the dialysis membrane of the RED Device, and PBS (phosphate buffer saline, pH 7.4) containing 0.01% (v/v) Tween 80 was added to the outside in accordance with the method for using the RED Device and incubated at 37° C. for 5 to 6 hours with ellipsoidal shaking at 100 rpm so that the concentration of the unbound test substance in the serum and the concentration of the test substance in the PBS reached equilibrium. After the incubation was completed, the respective solutions were collected and stored under freezing at −60° C. or less as measurement samples. The proteins were removed from the measurement sample by adding acetonitrile in an amount of 5-fold or more of the amount of the internal standard substance and the serum sample, and the supernatants were measured by LC/MS/MS (liquid chromatograph—triple quadrupole mass spectrometer). The serum samples were measured after suitably diluting with distilled water as necessary.
A: the concentration of the test substance in the PBS sample
B: the concentration of the test substance in the serum sample

[3] = Plasma concentration of test substance at ED50 value (mice, LC/MS/MS); format: in vivo; conditions: at the ED50 value, at time of morphine administration, oral, linear regression from two doses
Experimental: The concentration of the test substances in blood plasma was confirmed by using mice of the same week-old for the same dose as that used in the evaluation of the anti-pruritic effect. The test substance was administered by forced oral administration of an administration vehicle prepared in a similar manner to that in the evaluation of the anti-pruritic effect under a non-fasting condition. The blood samples were collected from the orbital venous plexus, within from 15 minutes after the administration of the test substance to after 180 minutes at the maximum, for multiple times including the timing at which the morphine solution was intracisternally administered, under inhalation anesthesia with diethyl ether or isoflurane using a heparin-treated hematocrit tubes. The collected blood samples were immediately ice-cooled and centrifuged at 1,800 g for 15 minutes at 4° C., and the plasma fractions were transferred and stored under freezing at −30° C. or less until measurement.
The concentrations of the test substances in plasma were measured using LC/MS/MS. Furthermore, as the measurement samples for LC/MS/MS, the supernatants obtained by adding an internal standard substance and acetonitrile in an amount within a range from 5-fold to 10-fold of the amount of the plasma to the collected plasma samples, and removing proteins therefrom, was used.

[4] = tested on: pruritus mice model to which morphine had been intracisternally administered; assay: Anti-pruritic effect in pruritus mice model to which morphine had been intracisternally administered; format: in vivo; conditions: Mus musculus; oral administration, male ICR mice, inhibition of morphine-induced scratching behavior; read-out: ED50
Experimental: As experimental animals, male ICR (Cr1j: CD1 (ICR): Charles River Japan) mice were used at 5 to 6-week old. The mice were placed in an acrylic cage (colorless and transparent, W 13.5 cm×D 9.5 cm×H 40 cm) for observing scratching behavior for 30 minutes or more to thereby allow the mice to get used to the observation environment, and the test substance solutions were forcedly orally administered to the test substance-administered groups. In addition, an administration vehicle was forcedly orally administered to the normal control group and the pathological control group. A necessary amount of the test substance was weighed and formed into a micropowder in an agate mortar, an administration vehicle, a 0.5 w/v % methyl cellulose 400 solution (Wako Pure Chemical Industries Ltd.) was added little by little, and preparation was performed by suspending or dissolving so as to give an intended concentration (from 0.025 to 3 mg/ml). The test doses were preset to suitable doses in the range in which the maximum dose is 30 mg/10 ml/kg.
Based on 30 minutes after the forced oral administration of the test substance as a criterion, the time for the intracisternal administration of morphine was suitably set up to 120 minutes after at the maximum, with consideration for the times of maximum plasma concentration of the respective test substances, in the case when the in vivo pharmacokinetics of the test substance had been confirmed in advance. Furthermore, saline was intracisternally administered to the normal control group, and the above-mentioned morphine solution was intracisternally administered to the pathogenic control group, so as to be 5 μL/site at the same time as that of the test substance group after the forced oral administration of the administration vehicle in either case.
The behavior of each mouse within 60 minutes from the intracisternal administration of the morphine solution or saline was recorded by a digital video camera that was installed immediately above the acrylic cage, the images were stored in a digital video recorder, and the number of frequency of the scratching behavior was measured. The number of frequency of the scratching behavior was measured with deeming a behavior in which the mouse raised its hindlimb, scratched the facial surface and the peripheral sites thereof, and got the hindlimb off from the body within 30 minutes from after the intracisternal administration of the morphine or saline as one time.
The anti-pruritic effect of each test substance was obtained as follows. As an inhibition ratio against the number of frequency of the scratching behavior on the pathological control group, the inhibition ratio (%) of the respective individuals and the average value thereof were calculated from the following formula, and an ED50 value was calculated based on the obtained inhibition ratio. Inhibition ratio of each individual (%)={1−(A−Vehicle)/(Morphine−Vehicle)}×100 Morphine: the average of the scratching number of the pathological control group Vehicle: the average of the scratching number of the normal control group A: the scratching number of each individual in the test substance-administered group

[5] = target: hERG current (Homo sapiens (Human), UniProt Q12809); assay: cell-based
hERG current, sequence (Q12809 whole entry): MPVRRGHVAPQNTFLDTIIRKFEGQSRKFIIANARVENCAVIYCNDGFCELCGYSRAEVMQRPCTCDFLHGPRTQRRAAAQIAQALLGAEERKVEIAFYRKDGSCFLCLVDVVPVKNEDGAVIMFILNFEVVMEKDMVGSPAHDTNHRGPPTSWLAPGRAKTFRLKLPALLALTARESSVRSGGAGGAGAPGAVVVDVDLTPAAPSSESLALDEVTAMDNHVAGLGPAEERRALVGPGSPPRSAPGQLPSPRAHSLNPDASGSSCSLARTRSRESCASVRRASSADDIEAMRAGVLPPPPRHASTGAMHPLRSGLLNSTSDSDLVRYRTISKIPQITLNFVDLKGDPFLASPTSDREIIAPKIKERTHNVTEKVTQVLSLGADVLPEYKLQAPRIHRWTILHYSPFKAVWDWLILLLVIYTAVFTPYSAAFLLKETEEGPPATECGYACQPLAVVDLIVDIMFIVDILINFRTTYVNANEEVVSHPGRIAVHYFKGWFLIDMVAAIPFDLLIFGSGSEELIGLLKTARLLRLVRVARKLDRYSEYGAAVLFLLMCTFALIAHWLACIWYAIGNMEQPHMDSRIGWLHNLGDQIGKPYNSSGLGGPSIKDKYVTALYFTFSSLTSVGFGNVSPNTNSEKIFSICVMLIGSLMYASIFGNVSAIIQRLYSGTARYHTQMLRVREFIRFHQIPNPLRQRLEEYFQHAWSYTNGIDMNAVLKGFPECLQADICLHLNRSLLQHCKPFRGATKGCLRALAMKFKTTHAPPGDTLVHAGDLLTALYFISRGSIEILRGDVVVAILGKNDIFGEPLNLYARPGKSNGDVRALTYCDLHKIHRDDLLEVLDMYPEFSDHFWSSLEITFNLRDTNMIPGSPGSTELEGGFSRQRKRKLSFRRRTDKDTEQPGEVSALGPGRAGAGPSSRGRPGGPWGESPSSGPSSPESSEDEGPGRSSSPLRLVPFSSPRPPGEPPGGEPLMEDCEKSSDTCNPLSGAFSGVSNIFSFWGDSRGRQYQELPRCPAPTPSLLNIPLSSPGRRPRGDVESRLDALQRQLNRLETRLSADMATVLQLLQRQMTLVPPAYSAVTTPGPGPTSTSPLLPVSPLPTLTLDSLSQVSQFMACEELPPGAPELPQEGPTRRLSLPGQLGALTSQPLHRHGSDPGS
Text: A: the suppression rate (%) of the test substance in each cell
B: the average suppression rate (%) of the vehicle control group

SMILES | IC50 [1] | fraction unbound [2] | Plasma concentration of test substance [3] | ED50 [4] | IC50 [5]
C=C[C@]1(c2cccc(NS(=O)(=O)C3CC3)c2)[C@@H]2CN(CC3(O)Cc4ccccc4C3)C[C@@H]21 [Example 19-(b), N-(3-{(1R,5S,6r)-3-[(2-hydroxy-2,3-dihydro-1H-inden-2-yl)methyl]-6-vinyl-3-azabicyclo[3.1.0]hexan-6-yl}phenyl)cyclopropanesulfonamide hydrochloride] | 4.5 nM | 0.009 | – | – | –
CCOC1(CCCN2C[C@@H]3[C@H](C2)[C@@]3(CC)c2cccc(NS(=O)(=O)C3CC3)c2)CCC(F)(F)CC1 [Example 14-(b), N-(3-{(1R,5S,6r)-3-[3-(1-ethoxy-4,4-difluorocyclohexyl)propyl]-6-ethyl-3-azabicyclo[3.1.0]hexan-6-yl}phenyl)cyclopropanesulfonamide hydrochloride] | 1.3 nM | – | – | – | –
CC[C@]1(c2cccc(NS(=O)(=O)C3CC3)c2)[C@@H]2CN(CC3(O)Cc4cc(F)c(F)cc4C3)C[C@@H]21 [Example 20-(a), N-(3-{(1R,5S,6r)-3-[(5,6-difluoro-2-hydroxy-2,3-dihydro-1H-inden-2-yl)methyl]-6-ethyl-3-azabicyclo[3.1.0]hexan-6-yl}phenyl)cyclopropanesulfonamide] | 4.1 nM | 0.006 | – | – | –
CCOC1(CN2C[C@@H]3[C@H](C2)[C@@]3(CC)c2cccc(NS(=O)(=O)C3CC3)c2)Cc2ccccc2C1 [Example 13-(b), N-(3-{(1R,5S,6r)-3-[(2-ethoxy-2,3-dihydro-1H-inden-2-yl)methyl]-6-ethyl-3-azabicyclo[3.1.0]hexan-6-yl}phenyl)cyclopropanesulfonamide hydrochloride] | 4.1 nM | – | 71.9 nM | 2.4 mg/kg | –
CC[C@]1(c2cc(NS(=O)(=O)C3CC3)ccc2F)[C@@H]2CN(CCCN3CCC(F)(F)C3)C[C@@H]21 [Example 9-(b), N-(3-{(1R,5S,6r)-3-[3-(3,3-difluoropyrrolidin-1-yl)propyl]-6-ethyl-3-azabicyclo[3.1.0]hexan-6-yl}-4-fluorophenyl)cyclopropanesulfonamide hydrochloride] | 2.5 nM | 0.173 | – | – | –
CC[C@]1(c2cc(F)cc(NS(=O)(=O)C3CC3)c2)[C@@H]2CN(CC3(OC)Cc4ccccc4C3)C[C@@H]21 [Example 12-(b), N-(3-{(1R,5S,6r)-6-ethyl-3-[(2-methoxy-2,3-dihydro-1H-inden-2-yl)methyl]-3-azabicyclo[3.1.0]hexan-6-yl}-5-fluorophenyl)cyclopropanesulfonamide hydrochloride] | 12 nM | 0.002 | 193 nM | 3.2 mg/kg | –
COC1(CN2C[C@@H]3[C@H](C2)[C@@]3(C)c2cccc(NS(=O)(=O)C3CC3)c2)Cc2ccccc2C1 [Example 18-(b), N-(3-{(1R,5S,6r)-3-[(2-methoxy-2,3-dihydro-1H-inden-2-yl)methyl]-6-methyl-3-azabicyclo[3.1.0]hexan-6-yl}phenyl)cyclopropanesulfonamide hydrochloride] | 16 nM | 0.007 | – | – | 400 nM
CC[C@]1(c2cccc(NS(=O)(=O)C3CC3)c2)[C@@H]2CN(CC3(O)Cc4ccccc4C3)C[C@@H]21 [Example 1-(b), N-(3-{(1R,5S,6r)-6-ethyl-3-[(2-hydroxy-2,3-dihydro-1H-inden-2-yl)methyl]-3-azabicyclo[3.1.0]hexan-6-yl}phenyl)cyclopropanesulfonamide hydrochloride] | 1.5 nM | – | – | – | –
CC[C@]1(c2cc(NS(=O)(=O)C3CC3)ccc2F)[C@@H]2CN(CC3(OC)Cc4ccccc4C3)C[C@@H]21 [Example 11-(b), N-(3-{(1R,5S,6r)-6-ethyl-3-[(2-methoxy-2,3-dihydro-1H-inden-2-yl)methyl]-3-azabicyclo[3.1.0]hexan-6-yl}-4-fluorophenyl)cyclopropanesulfonamide hydrochloride] | 2.8 nM | – | – | – | –
